Values after ≈ are worked out from the molar mass of the structure shown.
What was measured:
Assay in all cases: ≥ marks a high value that may be exact or a test limit, other limits are often not marked, values filed in µg/mL are converted to µM
[1] = test system: Escherichia coli ATCC 25922
[2] = test system: Pseudomonas aeruginosa ATCC 27853
[3] = test system: Staphylococcus aureus ATCC 25923

MIC [1] | MIC [2] | MIC [3] | SMILES
8.12 µM (≈ 9.99 µg/mL) | 6.09 µM (≈ 7.49 µg/mL) | 2.03 µM (≈ 2.5 µg/mL) | NC(=O)[C@H](CCCN=C(N)N)NC(=O)[C@H](Cc1c[nH]c2ccccc12)NC(=O)[C@H](Cc1c[nH]c2ccccc12)NC(=O)[C@H](CCCN=C(N)N)NC(=O)[C@H](Cc1c[nH]c2ccccc12)NC(=O)[C@H](Cc1c[nH]c2ccccc12)NC(=O)[C@@H](N)CCCN=C(N)N [RWWRWWR]
25 µM (≈ 37.9 µg/mL) |  | 6 µM (≈ 9.08 µg/mL) | CSCC[C@H](NC(=O)[C@H](Cc1c[nH]c2ccccc12)NC(=O)[C@H](CC(C)C)NC(=O)[C@H](C)N)C(=O)N[C@H](C(=O)N[C@@H](CC(C)C)C(=O)N[C@@H](CC(C)C)C(=O)N[C@@H](CCCCN)C(=O)N[C@@H](CCCCN)C(=O)N[C@H](C(=O)N[C@@H](CC(C)C)C(=O)N[C@@H](CCCCN)C(=O)N[C@@H](C)C(N)=O)C(C)C)[C@@H](C)O [ALWMTLLKKVLKA]
15 µM (≈ 34.1 µg/mL) |  | 15 µM (≈ 34.1 µg/mL) | CC(C)C[C@H](NC(=O)[C@H](CC(C)C)NC(=O)[C@H](CC(C)C)NC(=O)[C@@H]1CCCN1C(=O)[C@H](CC(C)C)NC(=O)[C@@H](N)Cc1ccccc1)C(=O)N[C@@H](C)C(=O)NCC(=O)N[C@@H](CC(C)C)C(=O)N1CCC[C@H]1C(=O)N[C@@H](CCCCN)C(=O)N[C@@H](CC(C)C)C(=O)N[C@@H](CC(C)C)C(=O)N[C@H]1CSSC[C@@H](C(=O)O)NC(=O)[C@H](CCCCN)NC(=O)[C@H](CCCCN)NC(=O)[C@H](Cc2ccccc2)NC(=O)[C@H](Cc2ccccc2)NC(=O)[C@H](CC(C)C)NC1=O [FLPLLLAGLPKLLCLFFKKC]
> 100 µM | > 100 µM | > 100 µM | CC(C)[C@H](NC(=O)[C@H](CC(=O)O)NC(=O)[C@H](CO)NC(=O)[C@H](CCCCN)NC(=O)CNC(=O)[C@H](CO)NC(=O)[C@H](CO)NC(=O)[C@H](Cc1cnc[nH]1)NC(=O)[C@@H](N)CCC(N)=O)C(=O)N[C@@H](CCCN=C(N)N)C(=O)N[C@@H](CCCN=C(N)N)C(=O)N[C@@H](Cc1c[nH]c2ccccc12)C(N)=O [QHSSGKSDVRRW]
19.1 µM (≈ 22 µg/mL) |  | 19.1 µM (≈ 22 µg/mL) | CC[C@H](C)[C@H](NC(=O)[C@H](CCCN=C(N)N)NC(=O)[C@H](CCCCN)NC(=O)[C@H](CC(C)C)NC(=O)[C@H](CC(C)C)NC(=O)CN)C(=O)N[C@@H](CCCCN)C(=O)N[C@H](C(=O)N[C@@H](CC(C)C)C(=O)N[C@@H](CC(C)C)C(N)=O)C(C)C [GLLKRIKVLL]
> 285 µM |  | 142 µM (≈ 99.9 µg/mL) | NC(=O)[C@H](CCCN=C(N)N)NC(=O)[C@H](Cc1c[nH]c2ccccc12)NC(=O)[C@H](Cc1c[nH]c2ccccc12)NC(=O)[C@@H](N)CCCN=C(N)N [RWWR]
> 200 µM |  |  | CC[C@H](C)[C@H](NC(=O)[C@H](CCCN=C(N)N)NC(=O)[C@H](CCCCN)NC(=O)[C@H](CCSC)NC(=O)[C@H](CC(C)C)NC(=O)CN)C(=O)N[C@@H](CCCCN)C(=O)N[C@H](C(=O)N[C@@H](CCSC)C(=O)N[C@@H](CC(C)C)C(N)=O)[C@@H](C)O [GLMKRIKTML]
110 µM (≈ 320 µg/mL) |  |  | CC[C@H](C)[C@H](NC(=O)[C@H](Cc1ccccc1)NC(=O)CN)C(=O)N[C@@H](CO)C(=O)N[C@H](C(=O)N[C@H](C(=O)N[C@@H](CCCCN)C(=O)N[C@@H](CC(N)=O)C(=O)N[C@@H](CC(C)C)C(=O)N[C@@H](C)C(=O)N[C@H](C(=O)N[C@@H](CC(N)=O)C(=O)N[C@H](C(=O)N[C@@H](C)C(=O)NCC(=O)N[C@H](C(=O)N[C@H](C(=O)N[C@H](C(=O)N[C@@H](CC(=O)O)C(=O)N[C@H](C(=O)N[C@H](C(=O)N[C@@H](CCCCN)C(=O)N[C@H]1CSSC[C@@H](C(=O)O)NC(=O)CNC(=O)CNC(=O)[C@H]([C@@H](C)O)NC(=O)[C@H](C(C)C)NC(=O)[C@H](CCCCN)NC1=O)[C@@H](C)CC)[C@@H](C)O)[C@@H](C)CC)C(C)C)[C@@H](C)O)C(C)C)[C@@H](C)O)C(C)C)[C@@H](C)O [GFISTVKNLATNVAGTVIDTIKCKVTGGC]
> 100 µM | > 100 µM |  | CC[C@H](C)[C@H](NC(=O)[C@H](Cc1ccc(O)cc1)NC(=O)[C@H](CCC(N)=O)NC(=O)[C@H](CC(C)C)NC(=O)[C@H](C)NC(=O)[C@H](CCCCN)NC(=O)[C@H](CCCCN)NC(=O)[C@H](CCSC)NC(=O)[C@H](CCCCN)NC(=O)[C@@H](N)CCCCN)C(=O)N[C@@H](CCCCN)C(=O)N[C@@H](CC(C)C)C(N)=O [KKMKKALQYIKL]
7.8 µM (≈ 8 µg/mL) |  |  | CC(C)C[C@H](NC(=O)[C@H](CCC(N)=O)NC(=O)[C@H](CCCCN)NC(=O)[C@H](CCCN=C(N)N)NC(=O)[C@@H]1CCCN1C(=O)[C@H](C)N)C(=O)N[C@@H](CCCCN)C(=O)N[C@@H](Cc1c[nH]c2ccccc12)C(=O)O [APRKQLKW]
2490 µM (≈ 2500 µg/mL) |  | 1250 µM (≈ 1250 µg/mL) | CC[C@H](C)[C@H](NC(=O)[C@H](CCC(=O)O)NC(=O)[C@H](C)NC(=O)[C@@H](NC(=O)[C@H](CCCCN)NC(=O)[C@H](CCCCN)NC(=O)CN)[C@@H](C)O)C(=O)N[C@@H](CCC(=O)O)C(=O)N[C@@H](CCCCN)C(=O)O [GKKTAEIEK]
29.5 µM (≈ 37 µg/mL) |  | 22.4 µM (≈ 28 µg/mL) | CC[C@H](C)[C@H](NC(=O)[C@H](CCCN=C(N)N)NC(=O)[C@H](CCCCN)NC(=O)[C@H](CC(C)C)NC(=O)[C@H](CC(C)C)NC(=O)[C@@H](N)CCCCN)C(=O)N[C@@H](CCCCN)C(=O)N[C@@H](CCCCN)C(=O)N[C@@H](CC(C)C)C(=O)N[C@@H](CC(C)C)C(N)=O [KLLKRIKKLL]
1.61 µM (≈ 2 µg/mL) |  | 3.23 µM (≈ 4 µg/mL) | CC[C@H](C)[C@H](NC(=O)[C@H](CCCN=C(N)N)NC(=O)[C@H](CCCCN)NC(=O)[C@H](CC(C)C)NC(=O)[C@H](CC(C)C)NC(=O)CN)C(=O)N[C@@H](CCCCN)C(=O)N[C@@H](Cc1c[nH]c2ccccc12)C(=O)N[C@@H](CC(C)C)C(=O)N[C@@H](CC(C)C)C(N)=O [GLLKRIKWLL]
3 µM (≈ 8.92 µg/mL) |  |  | CC[C@H](C)[C@H](NC(=O)CN)C(=O)N[C@@H](CCSC)C(=O)N[C@@H](CC(=O)O)C(=O)N[C@H](C(=O)N[C@H](C(=O)N[C@@H](CCCCN)C(=O)N[C@@H](CC(N)=O)C(=O)N[C@@H](C)C(=O)N[C@@H](C)C(=O)N[C@@H](CCCCN)C(=O)N[C@@H](CC(=O)O)C(=O)N[C@@H](CC(C)C)C(=O)N[C@@H](C)C(=O)NCC(=O)N[C@@H](CCC(N)=O)C(=O)N[C@@H](CC(C)C)C(=O)N[C@@H](CC(C)C)C(=O)N[C@@H](CC(=O)O)C(=O)N[C@@H](CCCCN)C(=O)N[C@@H](CC(C)C)C(=O)N[C@@H](CCCCN)C(=O)N[C@H]1CSSC[C@@H](C(=O)O)NC(=O)CNC(=O)[C@H]([C@@H](C)O)NC(=O)[C@H]([C@@H](C)CC)NC(=O)[C@H](CCCN=C(N)N)NC1=O)C(C)C)[C@@H](C)O [GIMDTVKNAAKDLAGQLLDKLKCRITGC]
1.8 µM (≈ 2 µg/mL) |  | 1.8 µM (≈ 2 µg/mL) | CC[C@H](C)[C@H](NC(=O)[C@H](CCCCN)NC(=O)[C@H](CC(C)C)NC(=O)[C@H](CC(C)C)NC(=O)CN)C(=O)N[C@H](C(=O)N[C@@H](CCCCN)C(=O)N[C@H](C(=O)N[C@@H](CC(C)C)C(=O)N[C@@H](CC(C)C)C(N)=O)[C@@H](C)O)[C@@H](C)CC [GLLKIIKTLL]
32.6 µM (≈ 50 µg/mL) | 130 µM (≈ 200 µg/mL) | 32.6 µM (≈ 50 µg/mL) | CSCC[C@H](NC(=O)[C@H](CCCN=C(N)N)NC(=O)[C@H](Cc1c[nH]c2ccccc12)NC(=O)[C@H](C)NC(=O)[C@H](Cc1c[nH]c2ccccc12)NC(=O)[C@H](CCCN=C(N)N)NC(=O)[C@H](CCCN=C(N)N)NC(=O)[C@H](C)NC(=O)[C@H](CCCCN)NC(=O)[C@@H](N)Cc1ccccc1)C(=O)N[C@@H](CCCCN)C(=O)O [FKARRWAWRMK]
16 µM (≈ 30.1 µg/mL) |  |  | CC(C)C[C@H](NC(=O)[C@H](Cc1ccccc1)NC(=O)[C@@H]1CCCN1C(=O)[C@H](Cc1c[nH]c2ccccc12)NC(=O)[C@H](Cc1c[nH]c2ccccc12)NC(=O)[C@H](Cc1ccc(O)cc1)NC(=O)[C@@H]1CCCN1C(=O)[C@H](Cc1ccccc1)NC(=O)[C@H](CCCN=C(N)N)NC(=O)[C@H](CCCN=C(N)N)NC(=O)[C@@H](N)C(C)C)C(=O)N[C@@H](CCCN=C(N)N)C(=O)N[C@@H](CCCN=C(N)N)C(N)=O [VRRFPYWWPFLRR]
 | > 128 µM |  | CC(C)C[C@H](NC(=O)[C@H](CC(C)C)NC(=O)[C@H](CCCN=C(N)N)NC(=O)[C@H](CC(C)C)NC(=O)[C@H](CC(C)C)NC(=O)[C@H](CCCN=C(N)N)NC(=O)[C@H](CCCN=C(N)N)NC(=O)[C@H](CC(C)C)NC(=O)[C@H](CC(C)C)NC(=O)[C@H](CCCN=C(N)N)NC(=O)[C@H](CC(C)C)NC(=O)[C@H](CC(C)C)NC(=O)[C@H](CCCN=C(N)N)NC(=O)[C@H](CC(C)C)NC(=O)[C@H](CCCN=C(N)N)NC(=O)[C@H](CC(C)C)NC(=O)[C@H](CCCN=C(N)N)NC(=O)[C@H](CCCN=C(N)N)NC(=O)[C@@H](N)CC(C)C)C(=O)O [LRRLRLRLLRLLRRLLRLL]
23.9 µM (≈ 25 µg/mL) |  | 9.57 µM (≈ 9.99 µg/mL) | NC(=O)[C@H](Cc1c[nH]c2ccccc12)NC(=O)[C@H](CCCN=C(N)N)NC(=O)[C@H](CCCN=C(N)N)NC(=O)[C@H](CCCN=C(N)N)NC(=O)[C@H](Cc1c[nH]c2ccccc12)NC(=O)[C@@H](N)Cc1c[nH]c2ccccc12 [WWRRRW]
32 µM (≈ 66.5 µg/mL) |  | > 32 µM | CC(C)[C@@H]1NC(=O)CNC(=O)[C@H](CCCN=C(N)N)NC(=O)[C@H](CCCN=C(N)N)NC(=O)[C@@H]2CSSC[C@H](NC1=O)C(=O)N[C@@H](CCCN=C(N)N)C(=O)N[C@H]1CSSC[C@H](NC(=O)[C@H](CCCN=C(N)N)NC(=O)[C@@H](NC(=O)[C@@H](NC(=O)CN)C(C)C)CSSC[C@@H](C(=O)N[C@@H](CCCN=C(N)N)C(=O)N[C@@H](CCCN=C(N)N)C(=O)O)NC(=O)[C@H](C(C)C)NC1=O)C(=O)N[C@@H](C(C)C)C(=O)N2 [GVCRCVCRRGVCRCVCRR]

SMILES | MIC [1] | MIC [2] | MIC [3]
CC[C@H](C)[C@H](NC(=O)[C@@H](N)Cc1ccc(O)cc1)C(=O)N[C@@H](CCCCN)C(=O)N[C@@H](CC(C)C)C(=O)N[C@@H](CC(C)C)C(=O)N[C@@H](CCCCN)C(=O)N[C@@H](CCC(=O)O)C(N)=O [YIKLLKE] | > 100 µM | > 100 µM | 

Source: DBAASP
